Results as given in patent US5418232A, “Diazabicycloalkene derivatives” (Daiichi Pharmaceutical Co., Ltd., priority 1992, dated 1995).

Tests used:
[1] = tested on: male HOS-Donryu rats; test: Antianginal activity, vasopressin-induced ST segment depression; assay type: in vivo, rat; conditions: for S Value (area of ST segment depression over 5 minutes): i.v., Example 47 0.01, Nifedipine 0.03, Cromakalim 0.01 mg/kg, vasopressin 0.5 U/kg
Experimental: The test was carried out in accordance with the method of Hiramatsu, et al. (see Japanese Journal of Pharmacology, Vol. 20, p. 313 (1970)). […] A cannula for blood pressure measurement was inserted into the left femoral artery, and a cannula for drug administration was inserted into the left femoral vein. […] Then, ECG was taken every 30 seconds over a period of 5 minutes to observe depression of the ST segment. A control group was given the solvent for the drug (a solution in which 5% dimethyl sulfoxide, 5% polyethylene glycol 200 and 1% cremophor were dissolved in physiological saline).

[2] = tested on: Guinea Pig Tracheae; test: Relaxing activity in guinea pig tracheae contracted with 30 mM potassium chloride; assay type: cell-based; conditions: for EC50: Cavia porcellus, relaxation by 10^-8 g/ml isoproterenol as 100%, read-out: EC50 (concentration inducing 50% relaxation)
Experimental: Male guinea pigs (body weight: 400-650 g) were sacrificed by exsanguination, and tracheae were excised.
Tracheal responses were measured isometrically using a transducer "EF-601G" (manufactured by Nihon Koden Kogyo Co., Ltd.) and recorded on a multi-pen recorder "R64 GP" (manufactured by Rika Denki Co., Ltd.). The initial tension in the tracheal preparation was set up at 1 g after the preparation had equilibrated for about 60 minutes, a 30 mM potassium chloride was added to cause contraction.

[3] = molecular target: T1, Potassium channel (Rattus norvegicus, UniProt Q63563); test: Potassium channel opening activity, 86Rb release from excised rat aorta segment; assay type: cell-based, Wistar rat; conditions: for potassium channel opening activity (in words): conclusion from Table 5; for ECAUC0.2 (effective concentration at which the area under the peak of the 86Rb release rate reached 0.2): rat aorta segment surface-perfused with test compound for 10 minutes
T1 construct: a segment of an excised aorta of a Wistar rat; from tissue; host or cells: excised aorta segment of Wistar rat

[4] = tested on: spontaneously hypertensive rats; test: Effect on renal blood flow (Doppler probe); assay type: in vivo, rat; conditions: for Increase in Renal Blood Flow 1 Hr after Administration: oral, dose which reduced blood pressure by about 50 mmHg; for activity in increasing the renal blood flow vs reference drug (in words): vs EMD57283
Experimental: Twenty-week-old male spontaneously hypertensive rats (body weight: 350-430 g) were anesthetized with pentobarbital (30 mg/kg, i.p.). An incision was made in the abdomen on the left side, and a Doppler probe for blood flow measurement was fitted to the left renal artery, and the code (wire lead) of the probe was passed under the back skin and taken out from the back of the neck. After 1 week from the operation, the code of the probe was connected to a Doppler blood flow meter to start measurement of the renal blood flow. After the renal blood flow reached to a steady state, a test compound was orally administered, and changes in renal blood flow were observed up to 9 hours. The test compound was used at a dose which reduced blood pressure by about 50 mmHg.

[5] = tested on: spontaneously hypertensive rats; test: Antihypertensive activity in spontaneously hypertensive rats (oral, tail-cuff); assay type: in vivo, rat; conditions: for ED (50 mmHg): Rattus norvegicus, systolic blood pressure, read-out: ED50mmHg (effective dose for reducing blood pressure by 50 mmHg); for Max. increase of Heat Rate / Time for Onset of Max. Activity: dose reducing blood pressure by 50 to 60 mmHg
Experimental: Male spontaneously hypertensive rats (16 to 20-week-old; body weight: 300-400 g) fed ab lib. were forceably given oral administration of a test compound suspended in 0.5% (w/v) carboxymethyl cellulose aqueous solution. After 1, 2, 4, 6, 8, 24, 30 or 48 hours from the administration, the systolic blood pressure was measured by a tail-cuff method described in Arzneimittel-Forschung, Vol. 18, pp. 1285-1287 (1968)).
The antihypertensive activity of the test compound was obtained as an effective dose for reducing blood pressure by 50 mmHg (ED50mmHg). Further, the time of onset of the maximum activity and the maximum increase in heart rate at a dose for reducing blood pressure by 50 to 60 mmHg were measured.
The statistical difference between a test compound and EMD57283 was analyzed by the Student's t-test.

T1 sequence (Q63563 1-1545 isoform Q63563-2): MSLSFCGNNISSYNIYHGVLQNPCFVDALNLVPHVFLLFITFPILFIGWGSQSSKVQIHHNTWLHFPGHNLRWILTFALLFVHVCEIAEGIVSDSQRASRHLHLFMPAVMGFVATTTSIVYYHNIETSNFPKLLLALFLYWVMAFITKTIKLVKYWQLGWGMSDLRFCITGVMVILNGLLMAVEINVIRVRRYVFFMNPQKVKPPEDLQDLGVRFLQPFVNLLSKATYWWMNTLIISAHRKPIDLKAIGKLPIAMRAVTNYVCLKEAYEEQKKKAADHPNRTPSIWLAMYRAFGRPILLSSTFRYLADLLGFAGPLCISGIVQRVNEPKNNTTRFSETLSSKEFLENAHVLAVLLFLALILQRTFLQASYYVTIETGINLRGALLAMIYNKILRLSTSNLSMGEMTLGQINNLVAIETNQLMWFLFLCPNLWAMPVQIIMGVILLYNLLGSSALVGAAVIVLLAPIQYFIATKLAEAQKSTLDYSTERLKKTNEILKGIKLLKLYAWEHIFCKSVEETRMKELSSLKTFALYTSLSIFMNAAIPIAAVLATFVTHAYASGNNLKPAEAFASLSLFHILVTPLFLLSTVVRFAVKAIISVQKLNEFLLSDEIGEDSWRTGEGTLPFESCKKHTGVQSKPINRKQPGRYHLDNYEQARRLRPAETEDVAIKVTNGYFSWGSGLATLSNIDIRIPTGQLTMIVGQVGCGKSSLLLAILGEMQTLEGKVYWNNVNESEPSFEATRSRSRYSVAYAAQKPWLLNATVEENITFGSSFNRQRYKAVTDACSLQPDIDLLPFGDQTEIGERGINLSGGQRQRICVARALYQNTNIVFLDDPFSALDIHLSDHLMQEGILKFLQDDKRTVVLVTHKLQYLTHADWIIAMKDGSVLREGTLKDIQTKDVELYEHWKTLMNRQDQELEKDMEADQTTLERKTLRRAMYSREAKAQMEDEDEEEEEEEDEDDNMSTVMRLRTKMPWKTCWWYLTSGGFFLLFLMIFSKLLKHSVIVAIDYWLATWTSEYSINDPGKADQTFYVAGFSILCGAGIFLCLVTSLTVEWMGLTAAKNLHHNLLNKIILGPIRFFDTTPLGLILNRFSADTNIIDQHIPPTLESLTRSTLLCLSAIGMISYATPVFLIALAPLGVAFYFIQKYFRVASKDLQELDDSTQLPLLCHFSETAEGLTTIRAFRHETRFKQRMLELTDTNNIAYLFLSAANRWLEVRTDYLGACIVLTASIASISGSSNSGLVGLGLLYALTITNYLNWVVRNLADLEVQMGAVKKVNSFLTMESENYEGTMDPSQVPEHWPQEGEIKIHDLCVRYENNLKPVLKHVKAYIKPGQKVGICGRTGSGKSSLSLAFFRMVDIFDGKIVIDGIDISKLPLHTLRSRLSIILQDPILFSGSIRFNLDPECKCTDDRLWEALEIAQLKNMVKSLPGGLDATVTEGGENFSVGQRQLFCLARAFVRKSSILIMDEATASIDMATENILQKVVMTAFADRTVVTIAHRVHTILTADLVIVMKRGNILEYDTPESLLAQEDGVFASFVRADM
T1 sequence (Q63664 whole entry partner, the tested form may be a part): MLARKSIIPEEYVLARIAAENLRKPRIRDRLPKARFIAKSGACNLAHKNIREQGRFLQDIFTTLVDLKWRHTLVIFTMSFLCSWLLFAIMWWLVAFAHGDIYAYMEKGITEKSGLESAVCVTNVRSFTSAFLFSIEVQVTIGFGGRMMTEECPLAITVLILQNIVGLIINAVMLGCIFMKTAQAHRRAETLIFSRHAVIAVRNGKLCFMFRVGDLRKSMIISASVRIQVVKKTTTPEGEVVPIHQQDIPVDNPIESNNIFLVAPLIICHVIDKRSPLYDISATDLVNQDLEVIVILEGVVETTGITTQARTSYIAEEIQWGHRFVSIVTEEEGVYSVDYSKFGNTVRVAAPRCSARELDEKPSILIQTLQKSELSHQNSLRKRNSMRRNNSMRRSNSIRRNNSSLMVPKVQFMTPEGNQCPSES

Compound | S Value (area of ST segment depression over 5 minutes) [1] [μV.min] | activity in relaxing tracheal smooth muscle vs cromakalim (in words) [2] | EC50 [2] [µM] | potassium channel opening activity (in words) [3] | ECAUC0.2 (effective concentration at which the area under the peak of the 86Rb release rate reached 0.2) [3] | Increase in Renal Blood Flow 1 Hr after Administration [4] [%] | activity in increasing the renal blood flow vs reference drug (in words) [4] | antihypertensive activity (in words) [5] | duration of activity (in words) [5] | ED (50 mmHg) [5] [mg/kg] | Max. increase of Heat Rate [5] [%] | Time for Onset of Max. Activity [5] [h] | antianginal activity (in words) ([1]; 0.01 mg/kg i.v.)
COC(=O)C1=C(C)NC(C)=C(C(=O)OC)C1c1ccccc1[N+](=O)[O-] [Nifedipine, reference compound] | 393 |  |  |  |  |  |  |  |  |  |  |  | 
C=CCN1N=C(O[C@@H]2c3cc(C#N)ccc3OC(C)(C)[C@H]2O)C2CC2C1=O (relative stereo) [Example 23, (3S,4R,1'R*,6'S*)-4-(3-allyl-2-oxo-3,4-diazabicyclo[4.1.0]hept-4-en-5-yloxy)-3,4-dihydro-2,2-dimethyl-3-hydroxy-2H-1-benzopyran-6-carbonitrile] |  | more potent activity in relaxing tracheal smooth muscle than cromakalim | 5.5 | possesses potassium channel opening activity | 0.18 |  |  |  |  |  |  |  | 
CC1(C)Oc2ccc(C#N)cc2[C@@H](OC2=NN(Cc3c(Cl)cccc3Cl)C(=O)C3CC23)[C@@H]1O (relative stereo) [Example 36, (3S,4R,1'R*,6'S*)-4-(3-(2,6-dichlorobenzyl)-2-oxo-3,4-diazabicyclo[4.1.0]hept-4-en-5-yloxy)-3,4-dihydro-2,2-dimethyl-3-hydroxy-2H-1-benzopyran-6-carbonitrile] |  |  |  |  |  | 15.4 ± 4.5 | more potent activity in increasing the renal blood flow than the reference drug | potent antihypertensive activity | long duration of activity | 0.4 | 9.6 ± 1.3 | 6.8 ± 0.5 | 
CC1(C)Oc2ccc(C#N)cc2[C@@H](OC2=NN(Cc3ccccc3)C(=O)[C@H]3C[C@@H]23)[C@@H]1O [Example 21, (3S, 4R, 1'S, 6'R)-4-(3-Benzyl-2-oxo-3,4-diazabicyclo[4.1.0]hept-4-en-5-yloxy)-3,4-dihydro-2,2-dimethyl-3-hydroxy-2H-1-benzopyran-6-carbonitrile] |  |  |  |  |  | 59.4 ± 9.7 | more potent activity in increasing the renal blood flow than the reference drug | potent antihypertensive activity | long duration of activity | 0.053 | 19.7 ± 3.0 | 6.4 ± 0.5 | 
CN1N=C(O[C@@H]2c3cc(C#N)ccc3OC(C)(C)[C@H]2O)C2CC2C1=O (relative stereo) [Example 22, (3S,4R,1'R*,6'S*)-3,4-dihydro-2,2-dimethyl-3-hydroxy-4-(3-methyl-2-oxo-3,4-diazabicyclo(4.1.0]hept-4-en-5-yloxy)-2H-benzopyran-6-carbonitrile] |  |  |  | possesses potassium channel opening activity | 0.18 |  |  |  |  |  |  |  | 
CC1(C)Oc2ccc(C#N)cc2[C@@H](OC2=NNC(=O)C3CC23)[C@@H]1O (relative stereo) [Example 47, (3S,4R,1'R*,6'S*)-3,4-Dihydro-2,2-dimethyl-3-hydroxy-4-(2-oxo-3,4-diazabicyclo[4.1.0]-hept-4-en-5-yloxy)-2H-1-benzopyran-6-carbonitrile] | 109 |  |  | possesses potassium channel opening activity | 0.21 | 24.3 ± 13.7 | more potent activity in increasing the renal blood flow than the reference drug |  |  |  |  |  | significantly reduces the S value
CC(C)=CCN1N=C(O[C@@H]2c3cc(C#N)ccc3OC(C)(C)[C@H]2O)C2CC2C1=O (relative stereo) [Example 29, (3S,4R,1'R*,6'S*)-3,4-dihydro-2,2-dimethyl-3-hydroxy-4-(3-(3-methyl-2-buten-1-yl)-2-oxo-3,4-diazabicyclo[4.1.0]hept-4-en-5-yloxy)-2H-1-benzopyran-6-carbonitrile] |  | more potent activity in relaxing tracheal smooth muscle than cromakalim | 3 |  |  |  |  |  |  |  |  |  | 
CN1N=C(O[C@@H]2c3cc(C#N)ccc3OC(C)(C)[C@@]2(C)O)C2CC2C1=O (relative stereo) [Example 56, (3S,4R,1'R*,6'S*)-3,4-Dihydro-3-hydroxy-4-(3-methyl-2-oxo-3,4-diazabicyclo[4.1.0]hept-4-en-5-yloxy)-2,2,3-trimethyl-2H-1-benzopyran-6-carbonitrile] |  |  |  | possesses potassium channel opening activity | 0.021 |  |  | potent antihypertensive activity | long duration of activity | 0.0023 | 19.2 ± 0.5 | 6.4 ± 0.4 | 
Cn1nc(O[C@@H]2c3cc(C#N)ccc3OC(C)(C)[C@H]2O)ccc1=O [EMD57283, (3S,4R)3,4-Dihydro-4-((1,6-dihydro-1-methyl-6-oxo-3-pyridazinyl)oxy)-2,2-imethyl-3-hydroxy-2H-1-benzopyran-6-carbonitrile, reference compound] |  |  |  |  | 0.16 | 10.8 ± 4.1 |  |  |  | 0.0064 | 41.3 ± 2.8 | 2.8 ± 0.7 | 
CCCCN1N=C(O[C@@H]2c3cc(C#N)ccc3OC(C)(C)[C@H]2O)C2CC2C1=O (relative stereo) [Example 32, (3S,4R,1'R*,6'S*)-4-(3-n-butyl-2-oxo-3,4-diazabicyclo(4.1.0]hept-4-en-5-yloxy)-3,4-dihydro-2,2-dimethyl-3-hydroxy-2H-1-benzopyran-6-carbonitrile] |  | more potent activity in relaxing tracheal smooth muscle than cromakalim | 5 |  |  |  |  | potent antihypertensive activity | long duration of activity | 0.076 | 22.3 ± 5.9 | 6.0 ± 0.6 | 
CC1(C)Oc2ccc(C#N)cc2[C@@H](N2CCCC2=O)[C@@H]1O (relative stereo) [Cromakalim, 3,4trans-3,4-Dihydro-2,2-dimethyl-3-hydroxy-4-(2-oxopyrrolidin-1-yl)-2H-1benzopyran-6-carbonitrile, reference compound] | 562 |  | 49 |  | 2.8 |  |  |  |  |  |  |  | 
CC1(C)Oc2ccc(C#N)cc2[C@@H](OC2=NN(Cc3ccc(Cl)cc3Cl)C(=O)C3CC23)[C@@H]1O (relative stereo) [Example 37, (3S,4R,1'R*,6'S*)-4-(3-(2,4-dichlorobenzyl)-2-oxo-3,4-diazabicyclo[4.1.0]hept-4-en-5-yloxy)-3,4-dihydro-2,2-dimethyl-3-hydroxy-2H-1-benzopyran-6-carbonitrile] |  |  |  |  |  |  |  | potent antihypertensive activity | long duration of activity | 0.035 | 9.2 ± 1.7 | 7.6 ± 0.4 | 
C#CCN1N=C(O[C@@H]2c3cc(C#N)ccc3OC(C)(C)[C@H]2O)C2CC2C1=O (relative stereo) [Example 24, (3S, 4R, 1'R*,6'S*)-3,4-dihydro-2,2-dimethyl-3-hydroxy-4-(2-oxo-3-(2-propyn-1-yl)-3,4-diazabicyclo[4.1.D]hept-4-en-5-yloxy)-2H-1-benzopyran-6-carbonitrile] |  |  |  |  |  |  |  | potent antihypertensive activity | long duration of activity | 0.02 | 22.2 ± 2.3 | 5.6 ± 1.2 | 
